{"source": "ChEMBL document CHEMBL1201862", "about": "“PubChem BioAssay data set” (2004)", "key": {"[1]": {"test": "cytotoxicity toward NIH3T3 fibroblasts, dose response, counter-screen, cell-based, ATP luminescence, mouse fibroblasts (AID 2010);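 further: cells exposed to compound for about 90 hours before reading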", "assay_type": "functional"}, "INS1": {"tested_on": "INS1", "test": "beta cell apoptosis inhibitors, cytokine rescue, dose response, luminescence, retest (AID 449756);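 further: cell death triggered by IL-1 beta plus TNF-alpha plus IFN-gamma mixture; protective hits raise ATP signal compared with cytokine alone wells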", "assay_type": "functional, cell-based", "conditions": "Rattus norvegicus"}, "[2]": {"test": "inhibitors of intracellular T. cruzi replication, confirmation, NIH3T3 host cells, beta-gal luminescence (AID 2044);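 further: luminescent beta-galactosidase reporter signal from transgenic T. cruzi replicating inside host cells; inhibitors lower the luminescence signal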", "assay_type": "functional, cell-based"}, "[3]": {"test": "C. albicans growth with fluconazole, confirmation, fluorescence, retest (AID 2467)", "assay_type": "functional, cell-based"}, "cells [4]": {"test": "cells"}, "[5]": {"test": "NIH-3T3 fibroblast cytotoxicity, dose response, cytotoxicity control, cell-based, fluorescence, Alamar Blue, secondary assay (AID 2327);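 further: NIH-3T3 mouse fibroblasts cultured with fluconazole at 8 µg/mL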", "assay_type": "functional"}, "[6]": {"molecular_target": "T1, Lytic switch protein BZLF1 (Epstein-Barr virus (strain B95-8) (HHV-4) (Human herpesvirus 4), UniProt P03206)", "T1 sequence (P03206 whole entry)": "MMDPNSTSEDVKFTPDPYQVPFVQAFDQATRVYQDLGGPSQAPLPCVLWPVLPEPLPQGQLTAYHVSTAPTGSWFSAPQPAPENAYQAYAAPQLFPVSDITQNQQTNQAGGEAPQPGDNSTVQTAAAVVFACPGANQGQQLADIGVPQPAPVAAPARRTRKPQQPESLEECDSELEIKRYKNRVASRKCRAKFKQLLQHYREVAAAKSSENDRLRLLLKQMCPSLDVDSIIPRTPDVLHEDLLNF", "test": "EBV ZTA inhibitors, dose response, counter-screen for EBNA-1 inhibitor project, biochemical, fluorescence polarization, Epstein-Barr virus, 1536-well (AID 2377);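 further: fluorescence polarization of Cy5-labelled ZRE DNA probe bound by purified Zta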", "parameters": "species or system human gammaherpesvirus 4"}, "[7]": {"molecular_target": "T2, Epstein-Barr nuclear antigen 1 (Epstein-Barr virus (strain B95-8) (HHV-4) (Human herpesvirus 4), UniProt P03211)", "T2 sequence (P03211 whole entry)": "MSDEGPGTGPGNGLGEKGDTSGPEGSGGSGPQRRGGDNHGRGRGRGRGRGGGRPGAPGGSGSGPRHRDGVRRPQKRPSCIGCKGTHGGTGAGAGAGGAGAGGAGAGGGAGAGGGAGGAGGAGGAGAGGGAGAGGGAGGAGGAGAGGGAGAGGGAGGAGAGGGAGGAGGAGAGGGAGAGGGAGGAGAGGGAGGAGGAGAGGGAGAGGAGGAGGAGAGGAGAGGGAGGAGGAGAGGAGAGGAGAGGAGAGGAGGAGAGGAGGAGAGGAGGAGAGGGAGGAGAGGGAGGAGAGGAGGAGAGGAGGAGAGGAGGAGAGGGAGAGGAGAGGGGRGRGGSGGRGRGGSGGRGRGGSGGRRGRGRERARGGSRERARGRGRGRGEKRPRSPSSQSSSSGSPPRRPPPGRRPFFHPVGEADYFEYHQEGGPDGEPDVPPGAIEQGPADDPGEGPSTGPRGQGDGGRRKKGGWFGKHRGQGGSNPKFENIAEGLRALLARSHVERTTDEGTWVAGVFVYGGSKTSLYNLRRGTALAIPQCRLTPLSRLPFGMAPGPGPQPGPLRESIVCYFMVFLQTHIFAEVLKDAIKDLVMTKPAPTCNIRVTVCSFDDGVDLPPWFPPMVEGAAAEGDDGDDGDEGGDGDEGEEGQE", "test": "EBNA-1 inhibitors, dose response, biochemical, fluorescence polarization, 1536-well (AID 2381);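 further: fluorescence polarization of a Cy5 DNA probe bound by EBNA-1 protein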", "parameters": "species or system human gammaherpesvirus 4"}, "[8]": {"molecular_target": "Mitogen-activated protein kinase 10 (Homo sapiens, UniProt P53779)", "sequence (P53779 whole entry)": "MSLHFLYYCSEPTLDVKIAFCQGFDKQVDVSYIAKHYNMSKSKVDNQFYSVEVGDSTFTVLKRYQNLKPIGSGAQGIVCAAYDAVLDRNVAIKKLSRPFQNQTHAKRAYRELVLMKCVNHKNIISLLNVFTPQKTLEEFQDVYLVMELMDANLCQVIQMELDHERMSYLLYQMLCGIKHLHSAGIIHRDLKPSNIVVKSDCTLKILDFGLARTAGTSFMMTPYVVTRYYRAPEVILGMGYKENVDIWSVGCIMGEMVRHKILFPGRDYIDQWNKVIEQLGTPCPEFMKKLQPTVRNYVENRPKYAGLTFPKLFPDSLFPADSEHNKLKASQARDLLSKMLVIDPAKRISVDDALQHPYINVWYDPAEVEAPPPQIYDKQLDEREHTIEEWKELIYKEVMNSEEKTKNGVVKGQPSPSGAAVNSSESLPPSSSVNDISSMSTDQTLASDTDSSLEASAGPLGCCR", "test": "Dose response biochemical screening assay for inhibitors of c-Jun N-Terminal Kinase 3 (JNK3). [Related pubchem assays: 746 ]"}, "[9]": {"test": "HEp-2 cell cytotoxicity, dose response, cytotoxicity control for RSV inhibitor project, HTS (AID 2410)", "assay_type": "functional", "conditions": "human respiratory syncytial virus"}, "cells [10]": {"test": "cells", "remark": "listed apart in the source"}, "[11]": {"test": "inhibitors of HIV Env-driven cell fusion, dose response, cherry-pick (AID 652057)", "assay_type": "functional, cell-based"}, "[12]": {"test": "off-target signal loss in HeLa-CEM21 co-culture – HeLa F-luc CTL cells, cherry-picked, counter-screen for HIV-1 Env fusion inhibitor project, dose response (AID 652040);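 further: potency for signal decrease marking cytotoxic or nonspecific inhibition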", "assay_type": "functional, cell-based"}, "[13]": {"molecular_target": "T3, Short transient receptor potential channel 4 (Mus musculus, UniProt Q9QUQ5)", "T3 sequence (Q9QUQ5 whole entry)": "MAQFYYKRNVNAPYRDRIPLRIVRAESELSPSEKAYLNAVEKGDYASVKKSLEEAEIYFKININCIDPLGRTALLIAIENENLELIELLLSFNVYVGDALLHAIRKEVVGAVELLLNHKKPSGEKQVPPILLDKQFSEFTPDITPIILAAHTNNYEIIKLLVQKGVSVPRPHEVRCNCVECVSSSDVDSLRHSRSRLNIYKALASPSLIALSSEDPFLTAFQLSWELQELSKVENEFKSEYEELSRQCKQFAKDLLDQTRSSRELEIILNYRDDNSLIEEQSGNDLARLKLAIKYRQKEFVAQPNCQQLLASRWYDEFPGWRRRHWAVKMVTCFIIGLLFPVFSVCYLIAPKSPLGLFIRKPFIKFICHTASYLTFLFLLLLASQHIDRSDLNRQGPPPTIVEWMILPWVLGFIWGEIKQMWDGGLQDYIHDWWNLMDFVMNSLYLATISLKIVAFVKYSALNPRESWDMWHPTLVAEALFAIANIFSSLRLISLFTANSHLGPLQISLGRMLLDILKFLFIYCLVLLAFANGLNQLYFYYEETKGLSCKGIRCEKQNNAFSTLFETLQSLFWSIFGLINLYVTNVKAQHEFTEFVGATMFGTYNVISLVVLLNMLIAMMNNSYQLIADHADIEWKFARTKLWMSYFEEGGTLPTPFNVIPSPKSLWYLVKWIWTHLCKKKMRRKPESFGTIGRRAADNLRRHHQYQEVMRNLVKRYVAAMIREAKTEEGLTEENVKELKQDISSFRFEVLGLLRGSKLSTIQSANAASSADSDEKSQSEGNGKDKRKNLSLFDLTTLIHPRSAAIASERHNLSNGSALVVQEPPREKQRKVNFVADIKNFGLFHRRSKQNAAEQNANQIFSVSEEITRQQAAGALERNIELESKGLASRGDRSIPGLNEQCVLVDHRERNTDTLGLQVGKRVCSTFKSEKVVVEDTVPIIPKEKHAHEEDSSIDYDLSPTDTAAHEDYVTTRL", "test": "mouse TRPC4 channel activators, dose response, cell-based, HEK293 TRPC4/mu-opioid, Fluo-4 calcium (AID 434937)", "assay_type": "functional"}, "[14]": {"test": "CEM21 lymphoblast cell cytotoxicity, dose response, cytotoxicity control for viral fusion inhibitor project, CellTiter-Glo luminescence, cherry-picked (AID 652042);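 further: potency for signal decrease meaning cytotoxicity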", "assay_type": "functional, cell-based"}, "[15]": {"test": "ZM109 Env clade C HIV-1 fusion inhibitors, dose response, HeLa effector, CEM target cells, luciferase, cherry-pick (AID 652058)", "assay_type": "functional, cell-based"}, "[16]": {"test": "inhibitors of clade B AD8 Env fusion, dose response, cell-based, cherry-pick (AID 652062);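 further: potency is for inhibitors of fusion seen as a drop in luminescence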", "assay_type": "functional"}, "Paired box protein Pax-8": {"molecular_target": "Paired box protein Pax-8 (Homo sapiens, UniProt Q06710)", "sequence (Q06710 whole entry)": "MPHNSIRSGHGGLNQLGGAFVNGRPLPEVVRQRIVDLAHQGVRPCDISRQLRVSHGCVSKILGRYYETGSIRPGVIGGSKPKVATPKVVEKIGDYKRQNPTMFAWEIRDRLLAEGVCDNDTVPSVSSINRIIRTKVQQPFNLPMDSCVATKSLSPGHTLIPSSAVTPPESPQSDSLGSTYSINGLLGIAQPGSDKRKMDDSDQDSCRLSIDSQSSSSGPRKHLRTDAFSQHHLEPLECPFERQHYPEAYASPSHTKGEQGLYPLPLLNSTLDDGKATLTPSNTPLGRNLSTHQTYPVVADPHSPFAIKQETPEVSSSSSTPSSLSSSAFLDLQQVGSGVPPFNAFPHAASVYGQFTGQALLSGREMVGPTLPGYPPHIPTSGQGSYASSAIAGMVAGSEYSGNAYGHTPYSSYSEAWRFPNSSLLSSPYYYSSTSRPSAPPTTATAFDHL", "test": "inhibitors of PAX8-driven TPO luciferase reporter, dose response, RMG-I cells, cherry-pick (AID 687027);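 further: luciferase reporter driven by Pax8 target thyroperoxidase promoter measured by SteadyGlo luminescence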", "assay_type": "functional, cell-based"}, "[17]": {"test": "cytotoxicity in OVCAR8 ovarian cancer cells, dose response, PAX8 project, cell-based, plate reader, dry powder samples (AID 743197)", "assay_type": "functional", "conditions": "OVCAR-8"}, "[18]": {"test": "P. falciparum Dd2 growth inhibitors, dose response, SYBR Green, dry powder samples (AID 1159566);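 further: potency for growth inhibition with lower SYBR green DNA signal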", "assay_type": "functional, cell-based"}, "[19]": {"test": "P. falciparum 3D7-ScDHODH growth inhibitors, dose response, SYBR Green, dry powder samples (AID 1159570);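 further: parasite growth measured after 72 hours of compound exposure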", "assay_type": "functional, cell-based"}, "[20]": {"test": "P. falciparum ATP4 D1247Y mutant growth inhibitors, dose response, NITD609-resistant line, SYBR Green, dry powder (AID 1159571);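 further: parasites synchronized at ring stage by sorbitol before testing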", "assay_type": "functional, cell-based"}, "[21]": {"test": "P. falciparum Dd2 growth inhibitors, dose response, SYBR Green, cherry-picked samples (AID 1159567)", "assay_type": "functional, cell-based"}}, "note": "The source made the active and inactive calls."}
{"smiles": "CCN1/C(=C/c2cccc[n+]2C)Sc2ccc(OC)cc21", "values": [{"measurement": "EC50", "setting": "[1]", "value": "> 60 µM (not active)"}, {"measurement": "AC50", "setting": "INS1", "value": "1.65 µM (active)"}, {"measurement": "EC50", "setting": "[2]", "value": "< 0.1 µM (active)"}, {"measurement": "EC50", "setting": "[3]", "value": "0.961 µM (active)"}, {"measurement": "EC50", "setting": "cells [4]", "value": "0.084 µM (active)"}, {"measurement": "EC50", "setting": "[5]", "value": "> 150 µM (inactive)"}]}
{"smiles": "CCCn1ncc(CN2CCCC(C(=O)c3cccc(OC)c3)C2)c1C", "note": "(stereo unspecified)", "values": [{"measurement": "EC50", "setting": "[1]", "value": "26.4 µM (active)"}, {"measurement": "EC50", "setting": "[2]", "value": "< 0.1 µM (active)"}, {"measurement": "EC50", "setting": "cells [4]", "value": "0.016 µM (active)"}]}
{"smiles": "COc1cc(-c2nc3n(n2)C(c2cccc(OC)c2OC)C2=C(O)CCCC2=N3)cc(OC)c1OC", "note": "(stereo unspecified)", "values": [{"measurement": "IC50", "setting": "[6]", "value": "> 111 µM (not active)"}, {"measurement": "IC50", "setting": "[7]", "value": "12.9 µM (not active)"}]}
{"smiles": "O=C1CCCc2nn(-c3ccccc3)c(-c3ccncc3)c21", "values": [{"measurement": "IC50", "setting": "[8]", "value": "42.3 µM (not active)"}]}
{"smiles": "COc1ccc(-c2nnc(OCc3nc4ccccc4n3C)c3ccccc23)cc1", "values": [{"measurement": "CC50", "setting": "[9]", "value": "38.6 µM (active)"}, {"measurement": "IC50", "setting": "cells [10]", "value": "14.7 µM (active)"}]}
{"smiles": "COC(=O)c1sccc1NC(=O)CN1CCN(c2ccc(F)cc2)CC1", "values": [{"measurement": "CC50", "setting": "[9]", "value": "22.2 µM (active)"}, {"measurement": "IC50", "setting": "[8]", "value": "15.6 µM (not active)"}]}
{"smiles": "COc1cc(C)c(CNCCc2c[nH]c3ccccc23)cc1C", "values": [{"measurement": "AC50", "setting": "[11]", "value": "1.51 µM (active)"}, {"measurement": "AC50", "setting": "[12]", "value": "3.7 µM (active)"}, {"measurement": "EC50", "setting": "[13]", "value": "2.66 µM (active)"}, {"measurement": "AC50", "setting": "[14]", "value": "22.9 µM (active)"}, {"measurement": "AC50", "setting": "[15]", "value": "0.482 µM (active)"}, {"measurement": "AC50", "setting": "[16]", "value": "6.52 µM (active)"}]}
{"smiles": "O=C(C[C@@H]1C[C@@H]2c3cc(NS(=O)(=O)c4ccc(F)cc4)ccc3O[C@@H]2[C@@H](CO)O1)NCc1ccc(-c2ccccc2)cc1", "values": [{"measurement": "AC50", "setting": "Paired box protein Pax-8", "value": "4.41 µM (active)"}, {"measurement": "AC50", "setting": "[17]", "value": "> 70 µM (inactive)"}]}
{"smiles": "C/C(N)=C(/C#N)C(=O)CN1C(=O)NC(Cc2c[nH]c3ccccc23)C1=O", "note": "(stereo unspecified)", "values": [{"measurement": "IC50", "setting": "cells [10]", "value": "1.91 µM (active)"}]}
{"smiles": "COc1ccc2c3c([nH]c2c1)[C@H](CO)N(C(=O)C1CCCCC1)CC31CCN(Cc2nccs2)CC1", "values": [{"measurement": "AC50", "setting": "[18]", "value": "0.183 µM (active)"}, {"measurement": "AC50", "setting": "[19]", "value": "0.158 µM (active)"}, {"measurement": "AC50", "setting": "[20]", "value": "0.198 µM (active)"}, {"measurement": "AC50", "setting": "[21]", "value": "0.833 µM (active)"}]}
{"smiles": "Cc1ccc(NC(=O)CSc2nnc(NC(=O)c3ccc(S(=O)(=O)N4CCOCC4)cc3)s2)cc1", "values": [{"measurement": "IC50", "setting": "[6]", "value": "> 111 µM (not active)"}, {"measurement": "IC50", "setting": "[7]", "value": "15.7 µM (not active)"}]}
